Assay results: PMC9865501, “Design and Synthesis of Scopoletin Sulfonate Derivatives as Potential Insecticidal Agents” (Molecules, 2023)
Values after ≈ are worked out from the molar mass of the structure shown. Read-outs that look alike come from different tables or passages of the source.

How the values were obtained:
T. cinnabarinus = assay: Acaricidal activity against T. cinnabarinus (leaf spray on broad bean, 72 h); format: in vivo, Tetranychus cinnabarinus; conditions: for LC50: Tetranychus cinnabarinus; for acaricidal toxicity relative to compound 5: compared with compound 5
Experimental: An acaricidal activity assay of the test compounds against mites was conducted according to procedures outlined in the literature. […] The stock solution was then diluted to a series of working concentrations with 1% Tween 80 to obtain the test solutions. Subsequently, the leaves of two-leaf-stage broad beans were inoculated with 150–200 female adult T. cinnabarinus mites and reared in a greenhouse (26 ± 1 °C, 75–80% RH, 16 h light and 8 h dark alternatively) for 8 h. The test solution of the compound was then evenly sprayed on these leaves, which were then cultivated in the greenhouse for 72 h. In the blank control group, Tween 80 (1%) was used instead of the treatment solution. Cyetpyrafen (CAS NO. 1253429-01-4) was used as a positive control. Each treatment was repeated three times. The dead insects were recorded under a stereoscope, and the corrected mortalities of mites treated with the compounds were calculated.

AChE = biological target: T1, AChE (Electrophorus electricus, UniProt O42275); assay: In vitro AChE inhibition (ELISA kit); format: biochemical, electric eels
T1 construct: purchased Sigma–Aldrich Chemie GmbH (Buchs, Switzerland)
Experimental: The effects of the title compounds on the in vitro AChE activity were evaluated using ELISA technology. AChE derived from electric eels was purchased from Sigma–Aldrich Chemie GmbH (Buchs, Switzerland). Briefly, the AChE was preincubated with different concentrations (500, 250, 125, 62.5, 31.25, 15.625, and 7.8125 μg/mL) of the compounds in PBS solution. Then, the AChE activities after incubation were measured using the corresponding ELISA kit according to the manufacturer’s instructions (Jiancheng, Nanjing, China). The detection was performed using a multifunctional microplate reader (SpectraMax® M2e, Thermo Scientific, Waltham, MA, USA).

[1] = Toxicity to brine shrimp Artemia; format: in vivo, Artemia salina; conditions: Artemia salina (brine shrimp), in vivo, other: immersion in test solution, read-out: Lethal activity to Artemia LC50
Experimental: (§1) The toxicity of the title compounds to the brine shrimp A. salina was evaluated according to the reported method. […] Subsequently, approximately 50 hatched (10 h instar) brine shrimp were transferred into each pore of a 24-well plate filled with the test solutions. Finally, the brine shrimp were reared in an illumination incubator (28 ± 1 °C, 12 h light and 12 h dark alternatively) for 24 h. DMSO—1% Tween 20 was used as a blank control. Each treatment was conducted in triplicate. The dead insects were recorded under a stereoscope, and the corrected mortalities of A. salina treated with the compounds were calculated.

A. salina = assay: Toxicity to brine shrimp Artemia; format: in vivo, Artemia salina
Experimental: as §1

[2] = 72 h, main text and Figure 5, read-out: LC50 against T. cinnabarinus
[3] = 72 h, Table S1, read-out: Acaricidal activity LC50

T1 sequence (O42275 24-633): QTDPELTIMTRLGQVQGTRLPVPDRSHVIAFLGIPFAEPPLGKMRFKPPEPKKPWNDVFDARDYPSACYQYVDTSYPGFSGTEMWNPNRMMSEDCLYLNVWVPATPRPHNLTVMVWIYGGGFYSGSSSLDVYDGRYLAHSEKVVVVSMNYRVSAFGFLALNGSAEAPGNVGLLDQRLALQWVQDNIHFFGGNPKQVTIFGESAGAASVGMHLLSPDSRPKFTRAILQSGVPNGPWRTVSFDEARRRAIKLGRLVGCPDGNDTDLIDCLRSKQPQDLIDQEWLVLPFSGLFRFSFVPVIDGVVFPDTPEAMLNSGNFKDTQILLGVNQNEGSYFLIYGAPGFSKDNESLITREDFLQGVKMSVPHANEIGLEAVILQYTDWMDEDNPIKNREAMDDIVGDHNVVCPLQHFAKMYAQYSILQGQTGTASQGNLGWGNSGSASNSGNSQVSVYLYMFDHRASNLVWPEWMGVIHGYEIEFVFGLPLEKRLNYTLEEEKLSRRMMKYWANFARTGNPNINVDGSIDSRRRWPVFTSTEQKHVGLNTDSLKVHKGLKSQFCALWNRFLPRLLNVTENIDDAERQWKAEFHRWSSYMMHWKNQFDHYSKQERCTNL

SMILES: COc1cc2cc(-c3ccc(F)cc3)c(=O)oc2cc1OS(=O)(=O)c1ccccc1 [Compound 5a]
- LC50 (T. cinnabarinus; [2]): 57 µg/mL (≈ 134 µM)
- acaricidal toxicity relative to compound 5 (T. cinnabarinus): approximately 2 times
- IC50 (AChE): 95.2 µM
- LC50 at 6 h [1]: 95.8 µg/mL (≈ 225 µM)
- LC50 at 12 h [1]: 55.8 µg/mL (≈ 131 µM)

SMILES: COc1cc2cc(-c3ccc(F)cc3)c(=O)oc2cc1OS(=O)(=O)c1cc(Cl)c(Cl)cc1Cl [Compound 5h]
- LC50 (T. cinnabarinus; [3]): 96 µg/mL (≈ 181 µM)
- IC50 (AChE): 198 µM
- LC50 at 6 h [1]: 106 µg/mL (≈ 200 µM)
- LC50 at 12 h [1]: 57.6 µg/mL (≈ 109 µM)

SMILES: COc1cc2cc(-c3ccc(F)cc3)c(=O)oc2cc1OS(=O)(=O)c1ccc2ccccc2c1 [Compound 5j]
- LC50 (T. cinnabarinus; [2]): 20 µg/mL (≈ 42 µM)
- acaricidal toxicity relative to compound 5 (T. cinnabarinus): ~5 times
- IC50 (AChE): 115 µM
- LC50 at 6 h [1]: 77.9 µg/mL (≈ 163 µM)
- LC50 at 12 h [1]: 29.7 µg/mL (≈ 62.3 µM)

SMILES: COc1cc2cc(C(=O)Nc3ccc(Br)cc3)c(=O)oc2cc1O [Compound 7, 3-(4-bromoaniline formyl)-7-hydroxy-6-methoxy-2H-chromen-2-one]
- LC50 (T. cinnabarinus; [3]): 82 µg/mL (≈ 210 µM)
- LC50 (T. cinnabarinus; [2]): 81 to 116 µg/mL (≈ 208 to 297 µM)
- IC50 (AChE): 197 µM
- LC50 at 6 h [1]: 52.3 µg/mL (≈ 134 µM)
- LC50 at 12 h [1]: 32.3 µg/mL (≈ 82.8 µM)

SMILES: COc1cc2cc(C(C)=O)c(=O)oc2cc1O [Compound 6, 3-acetyl-7-hydroxy-6-methoxy-2H-chromen-2-one]
- LC50 (T. cinnabarinus; [3]): 81 µg/mL (≈ 346 µM)
- LC50 (T. cinnabarinus; [2]): 81 to 116 µg/mL (≈ 346 to 495 µM)
- IC50 (AChE): 395 µM
- LC50 at 6 h [1]: 56.5 µg/mL (≈ 241 µM)
- LC50 at 12 h [1]: 35.6 µg/mL (≈ 152 µM)

SMILES: COc1cc2cc(-c3ccc(F)cc3)c(=O)oc2cc1OS(=O)(=O)c1ccc(F)cc1 [Compound 5c]
- LC50 (T. cinnabarinus; [3]): 94 µg/mL (≈ 212 µM)
- IC50 (AChE): 192 µM
- LC50 at 6 h [1]: 94.7 µg/mL (≈ 213 µM)
- LC50 at 12 h [1]: 48.6 µg/mL (≈ 109 µM)

SMILES: COc1cc2ccc(=O)oc2cc1OS(=O)(=O)c1cc(Cl)c(Cl)cc1Cl [Compound 4h]
- LC50 (T. cinnabarinus; [3]): 832 µg/mL (≈ 1910 µM)
- IC50 (AChE): 421 µM
- LC50 at 6 h [1]: 131 µg/mL (≈ 301 µM)
- LC50 at 12 h [1]: 125 µg/mL (≈ 287 µM)

SMILES: COc1cc2ccc(=O)oc2cc1OS(=O)(=O)c1ccccc1 [Compound 4a]
- LC50 (T. cinnabarinus; [3]): 448 µg/mL (≈ 1350 µM)
- IC50 (AChE): 431 µM
- LC50 at 6 h [1]: 47 µg/mL (≈ 141 µM)
- LC50 at 12 h [1]: 29.1 µg/mL (≈ 87.6 µM)

SMILES: CCn1nc(C)cc1/C(OC(=O)C(C)(C)C)=C(/C#N)c1ccc(C(C)(C)C)cc1 [Cyetpyrafen, reference compound]
- LC50 against T. cinnabarinus (T. cinnabarinus; 72 h, main text and Figure 5): 15.0 µg/mL (≈ 38.1 µM)
- AChE inhibition IC50 (AChE): 14.06 ± 10.20 µg/mL
- Lethal activity to Artemia LC50 (A. salina; 6 h): 11.7 µg/mL
- Lethal activity to Artemia LC50 (A. salina; 12 h): 6.13 µg/mL

SMILES: COc1cc2ccc(=O)oc2cc1OS(=O)(=O)c1ccc(F)cc1 [Compound 4c]
- LC50 (T. cinnabarinus; [3]): 318 µg/mL (≈ 908 µM)
- IC50 (AChE): 362 µM
- LC50 at 6 h [1]: 91.5 µg/mL (≈ 261 µM)
- LC50 at 12 h [1]: 56.3 µg/mL (≈ 161 µM)

SMILES: COc1cc2cc(C(=O)Nc3ccc(Br)cc3)c(=O)oc2cc1OS(=O)(=O)c1ccc(Cl)cc1 [Compound 7d]
- LC50 (T. cinnabarinus; [3]): 89 µg/mL (≈ 158 µM)
- IC50 (AChE): 174 µM
- LC50 at 6 h [1]: 54.2 µg/mL (≈ 96 µM)
- LC50 at 12 h [1]: 39.4 µg/mL (≈ 69.8 µM)

SMILES: COc1cc2ccc(=O)oc2cc1OS(=O)(=O)c1ccc(C(F)(F)F)cc1 [Compound 4f]
- LC50 (T. cinnabarinus; [3]): 441 µg/mL (≈ 1100 µM)
- IC50 (AChE): 420 µM
- LC50 at 6 h [1]: 109 µg/mL (≈ 272 µM)
- LC50 at 12 h [1]: 75.6 µg/mL (≈ 189 µM)

SMILES: COc1cc2cc(-c3ccc(F)cc3)c(=O)oc2cc1OS(=O)(=O)c1ccc(Cl)cc1 [Compound 5d]
- LC50 (T. cinnabarinus; [3]): 99 µg/mL (≈ 215 µM)
- IC50 (AChE): 149 µM
- LC50 at 6 h [1]: 72.8 µg/mL (≈ 158 µM)
- LC50 at 12 h [1]: 33.7 µg/mL (≈ 73.1 µM)

SMILES: COc1cc2ccc(=O)oc2cc1O [Compound 4, 7-hydroxy-6-methoxy-2H-chromen-2-one]
- LC50 (T. cinnabarinus; [3]): 144 µg/mL (≈ 749 µM)
- IC50 (AChE): 551 µM
- LC50 at 6 h [1]: 27.2 µg/mL (≈ 142 µM)
- LC50 at 12 h [1]: 14.2 µg/mL (≈ 73.9 µM)
